According to patent EP1683799A1, “3-Amino-6-aryl(or 6-heteroaryl)-4-R²-thieno[2,3-b]pyridin-2-carboxylic acid amides, pharmaceutical compositions comprising the said and their use as inhibitors of TNFalpha release” (IBFB Pharma GmbH, priority 2005, dated 2006):

Tested on: TNFα-Freisetzung
Assay: Inhibition of TNFα release after LPS stimulation of human whole blood (ELISA)
Type: cell-based
Settings: human whole blood diluted 1:5 with RPMI 1640; LPS (Salmonella abortus equi) 1 µg/ml; 24 h at 37°C; TNFα in supernatant by ELISA; read-out: EC50 Hemmung der TNFα-Freisetzung
Description: Methodenbeschreibung der Hemmung der TNFα Freisetzung nach LPS Stimulation von humanem Vollblut
Die Stimulierung isolierter Leukozyten für die Freisetzung von Zytokinen kann auf verschiedenen Wegen erfolgen. Lipopolysaccharide (LPS) stellen einen Stimulus für die Untersuchung der Freisetzung von TNFα dar. LPS ist Bestandteil bakterieller Zellwände und wird beim Abtöten der Bakterien (durch Antibiotika oder das natürliche Immunsystem) freigesetzt. LPS stimuliert insbesondere die Aktivität phagozytierender Leukozyten (Gewebsmakrophagen, Granulozyten, Monozyten) und verursacht die Infiltration von Leukozyten vom peripheren Blut in das betroffene Gewebe. Ein Zytokin von besonderer Bedeutung für diese Mechanismen ist TNFα, das in großen Mengen durch die betroffenen Zellen sezemiert wird. Hauptquelle dabei sind Monozyten und Makrophagen. TNFα initiiert und prolongiert den Entzündungsprozess im Zusammenspiel mit anderen Mediatoren.
Für die Untersuchung des Effektes auf die LPS-induzierte TNFα-Freisetzung wurde eine Methode verwendet, die von MARX et al. (Marx D, Tassabehji M, Heer S, Hüttenbrink KB, Szelenyi I (2002) Pulmonary Pharmacology & Therapeutics 15 7-15) beschrieben wurde. Die Methodenbeschreibung in verkürzter Darstellung: Humanes Blut verschiedener Spendern wird durch Zusatz von 10 mM Na-Citrat ungerinnbar gemacht und 1:5 mit RPMI 1640 Zellkulturmedium verdünnt. Die Verbindungen der allgemeinen Formel 1 sowie die Kontrollsubstanzen (z.B. Dexamethason) wurden den Blutproben in verschiedenen Konzentrationen hinzugefügt. 15 Minuten später wurden die Leukozyten durch Zusatz von Lipopolysacchariden (LPS) (aus Salmonella abortus equi) in einer Endkonzentration von 1 µg/ml stimuliert. Nach Inkubation der Testansätze für 24 Stunden bei 37°C. und unter 5% CO2 in wassergesättigter Luft, wurde das Blut zentrifugiert und die Konzentration an TNFα im zellfreien Überstand unter Verwendung eines käuflichen ELISA (BD Biosciences) nach Angaben des Herstellers exakt vermessen.

Row | SMILES | EC50
1 | NC(=O)c1sc2nc(-c3ccc4c(c3)OCCO4)cc(C(F)(F)F)c2c1N [3-Amino-6-(3,4-dioxoethylen-phenyl)-4-trifluormethyl-thieno[2,3-b]pyridin-2-carbonsäureamid] | < 1 nM
2 | CSc1ccc(-c2cc(C(F)(F)F)c3c(N)c(C(N)=O)sc3n2)cc1 [3-Amino-6-(4-methylthio-phenyl)-4-trifluormethyl-thieno[2,3-b]pyridin-2-carbonsäureamid] | < 1 nM
3 | Cc1ccc(-c2cc(C(F)F)c3c(N)c(C(N)=O)sc3n2)cc1 [Beispiel 1, 3-Amino-4-difluormethyl-6-(4-methyl-phenyl)thieno[2,3-b]pyridin-2-carbonsäureamid] | < 1 nM
4 | NC(=O)c1sc2nc(-c3cccs3)cc(C(F)(F)F)c2c1N [Beispiel 2, 3-Amino-6-(2-thienyl)-4-trifluormethyl-thieno[2,3-b]pyridin-2-carbonsäureamid] | < 1 nM
5 | NC(=O)c1sc2nc(-c3ccc4ccccc4c3)cc(C(F)(F)F)c2c1N [Beispiel 5, 3-Amino-6-(2-naphthyl)-4-trifluormethyl-thieno[2,3-b]pyridin-2-carbonsäureamid] | < 1 nM
6 | NC(=O)c1sc2nc(-c3ccccc3)cc(C(F)(F)F)c2c1N [Beispiel 6, 3-Amino-6-phenyl-4-trifluormethyl-thieno[2,3-b]pyridin-2-carbonsäureamid] | < 1 nM
7 | CCCc1ccc(-c2cc(C(F)(F)F)c3c(N)c(C(N)=O)sc3n2)cc1 [Beispiel 9, 3-Amino-6-(4-propyl-phenyl)-4-trifluormethyl-thieno[2,3-b]pyridin-2-carbonsäureamid] | < 1 nM
8 | CCOc1ccc(-c2cc(C(F)(F)F)c3c(N)c(C(N)=O)sc3n2)cc1 [Beispiel 13, 3-Amino-6-(4-ethoxy-phenyl)-4-trifluormethyl-thieno[2,3-b]pyridin-2-carbonsäureamid] | < 1 nM

The next lines start with the values.

Row | EC50 | SMILES
9 | < 1 nM | Cc1ccc(-c2cc(C(F)(F)F)c3c(N)c(C(N)=O)sc3n2)cc1 [Beispiel 7, 3-Amino-6-(4-methyl-phenyl)-4-trifluormethyl-thieno[2,3-b]pyridin-2-carbonsäureamid]
10 | < 1 nM | CCc1ccc(-c2cc(C(F)(F)F)c3c(N)c(C(N)=O)sc3n2)cc1 [Beispiel 8, 3-Amino-6-(4-ethyl-phenyl)-4-trifluormethyl-thieno[2,3-b]pyridin-2-carbonsäureamid]
11 | < 1 nM | CC(C)c1ccc(-c2cc(C(F)(F)F)c3c(N)c(C(N)=O)sc3n2)cc1 [Beispiel 10, 3-Amino-6-(4-isopropyl-phenyl)-4-trifluormethyl-thieno[2,3-b]pyridin-2-carbonsäureamid]
12 | < 1 nM | COc1ccc(-c2cc(C(F)(F)F)c3c(N)c(C(N)=O)sc3n2)cc1 [Beispiel 12, 3-Amino-6-(4-methoxy-phenyl)-4-trifluormethyl-thieno[2,3-b]pyridin-2-carbonsäureamid]
13 | < 1 nM | NC(=O)c1sc2nc(-c3ccc(Cl)cc3)cc(C(F)(F)F)c2c1N [Beispiel 14, 3-Amino-6-(4-chlor-phenyl)-4-trifluormethyl-thieno[2,3-b]pyridin-2-carbonsäureamid]
14 | < 1 nM | NC(=O)c1sc2nc(-c3ccc(Br)cc3)cc(C(F)(F)F)c2c1N [Beispiel 15, 3-Amino-6-(4-brom-phenyl)-4-trifluormethyl-thieno[2,3-b]pyridin-2-carbonsäureamid]
15 | < 1 nM | Cc1ccc(-c2cc(C(F)(F)F)c3c(N)c(C(N)=O)sc3n2)cc1C [Beispiel 16, 3-Amino-6-(3,4-dimethyl-phenyl)-4-trifluormethyl-thieno[2,3-b]pyridin-2-carbonsäureamid]
16 | < 1 nM | NC(=O)c1sc2nc(-c3ccc4c(c3)OCO4)cc(C(F)(F)F)c2c1N [Beispiel 18, 3-Amino-6-(3,4-dioxomethylen-phenyl)-4-trifluormethyl-thieno[2,3-b]pyridin-2-carbonsäureamid]
17 | < 1 nM | NC(=O)c1sc2nc(-c3ccc(F)cc3)cc(C(F)(F)F)c2c1N [Beispiel 22, 3-Amino-6-(4-fluor-phenyl)-4-trifluormethyl-thieno[2,3-b]pyridin-2-carbonsäureamid]
